# Measurements published in publication PMC12534982 (Journal of Experimental & Clinical Cancer Research : CR, 2025).
# Tests used:
# [1] = tested on: FBS-starved cancer cells; assay: Serum starvation of cancer cells (CellTiter-Glo); assay type: cell-based, human; details: 25 µM, 24 h, FBS-free
# Method: Cancer cells (7.5 × 10^3) were cultured in a 96-well plate in DMEM (fortified with 10% FBS) for 24 h. Subsequently, the cells were subjected to serum starvation (FBS-free DMEM) and treated with either DMSO or NK-A 17E-233I (25 µM) for an additional 24 h. Cell proliferation was measured using the CellTiter-Glo reagent as previously described.
# [2] = tested on: SW620 cells; assay: RNA sequencing (RNASeq); assay type: cell-based, human; details: 25 µM, 48 h
# Method: Cancer cells (2.2 × 10^6) were cultured in 100-mm Petri dishes and treated with either DMSO or NK-A 17E-233I (25 µM) for a duration of 48 h. Dry cell pellets were collected from three independent biological replicates and submitted to Novogene for RNASeq analysis (Cambridge, UK). The raw data are available in detail at the Zenodo repository (10.5281/zenodo.14833856).
# [3] = tested on: colorectal cancer cells; assay: Live-cell imaging; assay type: cell-based, human; details: 25 µM, 24 h time-lapse
# Method: Following staining, cells were treated with either DMSO or NK-A 17E-233I (25 µM) and subjected to time-lapse imaging for another 24 h, with an acquisition time of 1 h between frames. Cells were maintained at 37 °C with 5% CO2 and 95% humidity using Okolab chambers and monitored with a Leica DMi8 microscope equipped with a Leica DFC9000GT camera. Images were captured in brightfield and at 405 nm to visualize the nuclei using a 20X objective (HC PL FLUOTAR 20x/0.75). Images were processed using Leica Application Suite X (LAS X) Life Science Microscope Software (v3.5.5.19976, RRID:SCR_013673).
# [4] = tested on: colorectal cancer cells; assay: DNA damage immunostaining (γ-H2AX, Rad51); assay type: cell-based, human; details: 25 µM, 24 h
# Method: To evaluate DNA damage, cancer cells (1 × 10^3) were cultured in 8-well collagen IV Ibidi chamber slides (#80,822; Ibidi) for 24 h, treated with DMSO or NK-A 17E-233I (25 µM) for an additional 24 h, and then fixed. For assessing the integrity of the cytoskeleton, neuronal cells (BFCNs) were cultured on coverslips for 14 days, while non-neuronal cells (cancer cells) were cultured on coverslips for 24 h. Both neuronal and non-neuronal cells were treated with DMSO or NK-A 17E-233I (1 µM) for 24 h, fixed, and permeabilized as described in [21]. Samples were then blocked (non-neuronal cells with 3% BSA in PBS-T and neuronal cells with 10% BSA in PBS-T) and incubated overnight at 4 °C with the appropriate primary antibodies. Following this, samples were washed with PBS-T and incubated for 1 h with Alexa-488 Phalloidin (#A12379; Invitrogen-ThermoFisher Scientific) to visualize F-actin, along with the corresponding secondary antibodies. The cells were mounted with Ibidi mounting medium containing 4',6-diamidino-2-phenylindole (DAPI, #50011; Ibidi) prior to imaging. […]
# The density of γ-H2AX, Rad51, ΔΨm, and oxidative stress in cancer cells was measured as described in [32], utilizing custom macros available as open access at Zenodo (https://zenodo.org/records/8387899) to obtain raw intensities and individual cell area.
# [5] = tested on: basal forebrain cholinergic neurons (BFCNs); assay: Cytoskeleton immunostaining; assay type: cell-based, mouse; details: 24 h
# Method: To evaluate DNA damage, cancer cells (1 × 10^3) were cultured in 8-well collagen IV Ibidi chamber slides (#80,822; Ibidi) for 24 h, treated with DMSO or NK-A 17E-233I (25 µM) for an additional 24 h, and then fixed. For assessing the integrity of the cytoskeleton, neuronal cells (BFCNs) were cultured on coverslips for 14 days, while non-neuronal cells (cancer cells) were cultured on coverslips for 24 h. Both neuronal and non-neuronal cells were treated with DMSO or NK-A 17E-233I (1 µM) for 24 h, fixed, and permeabilized as described in [21]. Samples were then blocked (non-neuronal cells with 3% BSA in PBS-T and neuronal cells with 10% BSA in PBS-T) and incubated overnight at 4 °C with the appropriate primary antibodies. Following this, samples were washed with PBS-T and incubated for 1 h with Alexa-488 Phalloidin (#A12379; Invitrogen-ThermoFisher Scientific) to visualize F-actin, along with the corresponding secondary antibodies. The cells were mounted with Ibidi mounting medium containing 4',6-diamidino-2-phenylindole (DAPI, #50011; Ibidi) prior to imaging.
# The primary antibodies utilized were: anti–α-tubulin at a 1:1000 dilution (#SC-32293; Santa Cruz), anti–γ-H2AX and anti-Rad51 at 1:500 dilution (#ab22551 and #ab133534, respectively; […]), and anti–microtubule-associated protein 2 (MAP2) at a 1:1000 dilution (#OSM00149W; ThermoFisher Scientific). […]
# [6] = tested on: SW620 cells; assay: DHODH-dependent respiration (permeabilized cells); assay type: cell-based, human; details: 24 h; NK-A 17E-233I 25 µM, Brequinar 100 µM; excess exogenous DHO
# Method: Cells were resuspended in MiR05 medium and transferred into the chambers of the Oxygraph-2k instruments. The OCR in digitonin-permeabilized cells was monitored in the presence of the complex I inhibitor (0.5 μM rotenone), 1 mM DHO, 3 mM ADP, 10 μM cytochrome c, and 30 μM Leflunomide. DHODH-mediated respiration was calculated by subtracting the residual respiration rate after the addition of 30 μM Leflunomide from the respiration rate measured in the presence of 0.5 μM rotenone, 1 mM DHO, 3 mM ADP, and 10 μM cytochrome c.
# [7] = tested on: SW620 cells; assay: Glutathione assay (GSH/GSSG); assay type: cell-based, human; details: 25 µM, 24 h
# Method: Optical density measurements were recorded at 450 nm using a Victor Multilabel Plate Reader.
# [8] = tested on: colorectal cancer cells; assay: Cell proliferation assay (Trypan Blue exclusion); assay type: cell-based, human
# Method: Cancer cells (7.5 × 10^3) were cultured in 60-mm Petri dishes and treated with DMSO or NK-A 17E-233I (25 µM) to evaluate their proliferation at various time intervals (24 h, 48 h, 96 h, 120 h) using the Trypan Blue exclusion assay.
# [9] = tested on: SW620 cells; assay: Complex I- and complex II-dependent respiration (permeabilized cells); assay type: cell-based, human; details: 25 µM, 24 h
# Method: Following treatment, cells were detached using trypsin–EDTA, washed with PBS, and resuspended in MiR05 media (composed of 110 mM sucrose, 60 mM potassium-lactobionate, 0.5 mM EGTA, 3 mM MgCl2·6H2O, 20 mM taurine, 10 mM KH2PO4, 20 mM HEPES adjusted to pH 7.1 with KOH at 37 °C, and 1 g/L BSA) at a concentration of 5 × 10^5 cells/mL. The cells were then transferred into 2 mL Oxygraph chambers for real-time measurement of OCR. Initial permeabilization was achieved using 7 μg of digitonin, followed by the sequential addition of substrates and inhibitors: 5 mM ADP, 2 mM malate, 10 μM cytochrome c, 5 mM pyruvate, 10 mM glutamate, 10 mM succinate, 0.5 μM rotenone, and 2.5 μM antimycin A. Mitochondrial membrane integrity was confirmed through the addition of cytochrome c (10 μM), with observed changes in OCR remaining below 10%. Complex I-mediated respiration was evaluated following the addition of complex I substrates (malate/pyruvate/glutamate), while complex II-mediated respiration was assessed in the presence of the complex II substrate (succinate) and the complex I inhibitor (rotenone). Residual oxygen consumption after the addition of antimycin A was subtracted from all the results to yield mitochondria-specific rates. […] Oxygen consumption rates were expressed as picomoles (pmol) per second per million cells (Mill) and normalized to the mitochondrial copy number in each sample.
compound,measurement,setting,value
COc1cc(C)c(Oc2cc(C)cc(O)c2O)c(O)c1 [NK-A 17E-233I],effect on starved cancer cells,[1],no significant effect
same,POLD2 gene expression (RNASeq),[2],significantly downregulated
same,progression through mitosis (G2/M),[3],failed to progress through mitosis
same,intensity of γ-H2AX and Rad51,[4],significant increase
same,"dendritic and cytoskeletal structures (F-actin, MAP2)",[5],retained their dendritic and cytoskeletal structures
same,DHODH-mediated oxygen consumption rate,[6],reduced
same,GSH/GSSG ratio,[7],significantly decreased
same,oxidized glutathione (GSSG) levels,[7],increasing
same,reduced glutathione (GSH) levels,[7],significantly decreased
same,cell proliferation,"[8]; 25 µM, over time",reduced
same,growth inhibition in the presence of physiological uridine,"[8]; SW620, 25 µM, 24 h, 5 µM and 20 µM uridine",did not mitigate the growth inhibitory effects
same,OCR supported by complex I and II substrates,[9],did not alter
